Laboratory results published in patent publication US4713386A, “Tetrahydroazeto [2,1-a]isoquinolines and methods for treating depression” (McNeilab, Inc., priority 1986, dated 1987).

Test system: Mouse
Assay: Mouse Tetrabenazine Antagonism Assay (TBZ 32 mg/kg i.p.; exploratory activity and reversal of ptosis)
Type: in vivo
Details: mice, (1:1) fumarate salt
Experimental: In this test, mice are injected with a test compound 30 min prior to the injection of 32 mg/kg i.p. of TBZ, a drug which decreases normal exploratory activity and induces ptosis. After 30 min. the mice are tested for two parameters: the presence of normal exploratory activity (EA) and reversal of ptosis (Pt). A control group of mice is given only 32 mg/kg i.p. of TBZ. The biological activity of the novel compounds of this invention may be understood by the representative, nonlimiting example, presented in Table I.

[1] = @ 3 mg/kg i.p., 30 min before 32 mg/kg i.p. TBZ

Structure (SMILES): O=C(O)/C=C/C(=O)O.c1ccc([C@@H]2CN3CC[C@@H]3c3ccccc32)cc1 (relative stereo) [Example 1d, trans-1,4,5,9b-Tetrahydro-5-phenyl-2H-azeto[2,1-a]isoquinoline (E)-2-butenedioate]
- ED50 (Mus musculus, ip, i.p., TBZ 32 mg/kg i.p.): 1.25 mg/kg
- % inhibition EA (exploratory activity) [1]: 50%
- % inhibition Pt (reversal of ptosis) [1]: 88%
